# Source: the supplement of paper PMC10307832
# What was measured:
# Experiment in all cases: relative viability (nuclei count vs DMSO), 5 days (fraction); higher = more cells survive
# NCI-H1734 = test system: NCI-H1734
# In short: (§1)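 One day after seeding in 1536-well plates, lung cancer cell lines were dosed by pin tool. Dosing was either single-drug or a fixed anchor-drug dose plus five library-drug doses (not always all listed) in √10 steps. After 5 days, nuclei were stained in one fix-and-stain step and counted on 4× images, and relative viability is the nuclei count of treated wells over that of vehicle wells, given as the median of duplicate plates.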
# NCI-H1755 = test system: NCI-H1755
# In short: as §1
# NCI-H1355 = test system: NCI-H1355
# In short: as §1
# NCI-H596 = test system: NCI-H596
# In short: as §1
# NCI-H2342 = test system: NCI-H2342
# In short: as §1
# LK-2 = test system: LK-2
# In short: as §1
# LCLC-97TM1 = test system: LCLC-97TM1
# In short: as §1
# HCC-78 = test system: HCC-78
# In short: as §1
# NCI-H2126 = test system: NCI-H2126
# In short: as §1
# NCI-H1944 = test system: NCI-H1944
# In short: as §1
# NCI-H1975 = test system: NCI-H1975
# In short: as §1
# PC-3 [JPC-3] = test system: PC-3 [JPC-3]
# In short: as §1
# NCI-H2405 = test system: NCI-H2405
# In short: as §1
# NCI-H727 = test system: NCI-H727
# In short: as §1
# ChaGo-K-1 = test system: ChaGo-K-1
# In short: as §1
# NCI-H1648 = test system: NCI-H1648
# In short: as §1
# NCI-H23 = test system: NCI-H23
# In short: as §1
# NCI-H1993 = test system: NCI-H1993
# In short: as §1
# HOP-62 = test system: HOP-62
# In short: as §1
# NCI-H1650 = test system: NCI-H1650
# In short: as §1
# NCI-H460 = test system: NCI-H460
# In short: as §1
# NCI-H358 = test system: NCI-H358
# In short: as §1
structure (smiles),measurement,setting,value
Nc1cccc2c1CN(C1CCC(=O)NC1=O)C2=O (centres undefined) [Lenalidomide] + Nc1ncn([C@H]2C[C@H](O)[C@@H](CO)O2)c(=O)n1 [Decitabine] (partner 2 µM),relative viability,NCI-H1734; first compound 0.253 µM,0.508
same,relative viability,NCI-H1734; first compound 0.8 µM,0.478
same,relative viability,NCI-H1734; first compound 2.53 µM,0.568
same,relative viability,NCI-H1734; first compound 8 µM,0.485
same,relative viability,NCI-H1755; first compound 0.253 µM,0.763
same,relative viability,NCI-H1755; first compound 0.8 µM,0.687
same,relative viability,NCI-H1755; first compound 2.53 µM,0.712
same,relative viability,NCI-H1755; first compound 8 µM,0.688
same,relative viability,NCI-H1355; first compound 0.253 µM,0.36
same,relative viability,NCI-H1355; first compound 0.8 µM,0.367
same,relative viability,NCI-H1355; first compound 2.53 µM,0.376
same,relative viability,NCI-H1355; first compound 8 µM,0.341
same,relative viability,NCI-H596; first compound 0.253 µM,0.85
same,relative viability,NCI-H596; first compound 0.8 µM,1.46
same,relative viability,NCI-H596; first compound 2.53 µM,1.06
same,relative viability,NCI-H596; first compound 8 µM,0.95
same,relative viability,NCI-H2342; first compound 0.253 µM,0.687
same,relative viability,NCI-H2342; first compound 0.8 µM,0.678
same,relative viability,NCI-H2342; first compound 2.53 µM,0.624
same,relative viability,NCI-H2342; first compound 8 µM,0.699
same,relative viability,LK-2; first compound 0.253 µM,0.312
same,relative viability,LK-2; first compound 0.8 µM,0.177
same,relative viability,LK-2; first compound 2.53 µM,0.36
same,relative viability,LK-2; first compound 8 µM,0.187
same,relative viability,LCLC-97TM1; first compound 0.253 µM,0.226
same,relative viability,LCLC-97TM1; first compound 0.8 µM,0.236
same,relative viability,LCLC-97TM1; first compound 2.53 µM,0.256
same,relative viability,LCLC-97TM1; first compound 8 µM,0.221
same,relative viability,HCC-78; first compound 0.253 µM,0.731
same,relative viability,HCC-78; first compound 0.8 µM,0.637
same,relative viability,HCC-78; first compound 2.53 µM,0.703
same,relative viability,HCC-78; first compound 8 µM,0.558
same,relative viability,NCI-H2126; first compound 0.253 µM,0.645
same,relative viability,NCI-H2126; first compound 0.8 µM,0.611
same,relative viability,NCI-H2126; first compound 2.53 µM,0.578
same,relative viability,NCI-H2126; first compound 8 µM,0.516
same,relative viability,NCI-H1944; first compound 0.253 µM,0.446
same,relative viability,NCI-H1944; first compound 2.53 µM,0.457
same,relative viability,NCI-H1944; first compound 8 µM,0.393
same,relative viability,NCI-H1975; first compound 0.253 µM,0.414
same,relative viability,NCI-H1975; first compound 0.8 µM,0.334
same,relative viability,NCI-H1975; first compound 2.53 µM,0.421
same,relative viability,NCI-H1975; first compound 8 µM,0.356
same,relative viability,PC-3 [JPC-3]; first compound 0.253 µM,0.848
same,relative viability,PC-3 [JPC-3]; first compound 0.8 µM,0.807
same,relative viability,PC-3 [JPC-3]; first compound 2.53 µM,0.874
same,relative viability,PC-3 [JPC-3]; first compound 8 µM,0.878
same,relative viability,NCI-H2405; first compound 0.253 µM,0.719
same,relative viability,NCI-H2405; first compound 0.8 µM,0.817
same,relative viability,NCI-H2405; first compound 2.53 µM,0.782
same,relative viability,NCI-H2405; first compound 8 µM,0.632
same,relative viability,NCI-H727; first compound 0.253 µM,0.778
same,relative viability,NCI-H727; first compound 0.8 µM,0.637
same,relative viability,NCI-H727; first compound 2.53 µM,0.99
same,relative viability,NCI-H727; first compound 8 µM,0.616
same,relative viability,ChaGo-K-1; first compound 0.253 µM,0.519
same,relative viability,ChaGo-K-1; first compound 0.8 µM,0.551
same,relative viability,ChaGo-K-1; first compound 2.53 µM,0.525
same,relative viability,ChaGo-K-1; first compound 8 µM,0.538
same,relative viability,NCI-H1648; first compound 0.253 µM,0.562
same,relative viability,NCI-H1648; first compound 2.53 µM,0.557
same,relative viability,NCI-H1648; first compound 8 µM,0.411
same,relative viability,NCI-H23; first compound 0.253 µM,0.302
same,relative viability,NCI-H23; first compound 2.53 µM,0.315
same,relative viability,NCI-H23; first compound 8 µM,0.305
same,relative viability,NCI-H1993; first compound 0.253 µM,0.658
same,relative viability,NCI-H1993; first compound 0.8 µM,0.588
same,relative viability,NCI-H1993; first compound 2.53 µM,0.529
same,relative viability,NCI-H1993; first compound 8 µM,0.51
same,relative viability,HOP-62; first compound 0.253 µM,0.264
same,relative viability,HOP-62; first compound 0.8 µM,0.239
same,relative viability,HOP-62; first compound 2.53 µM,0.224
same,relative viability,HOP-62; first compound 8 µM,0.212
same,relative viability,NCI-H1650; first compound 0.253 µM,0.387
same,relative viability,NCI-H1650; first compound 0.8 µM,0.424
same,relative viability,NCI-H1650; first compound 2.53 µM,0.419
same,relative viability,NCI-H1650; first compound 8 µM,0.479
same,relative viability,NCI-H460; first compound 0.253 µM,0.402
same,relative viability,NCI-H460; first compound 0.8 µM,0.476
same,relative viability,NCI-H460; first compound 2.53 µM,0.64
same,relative viability,NCI-H460; first compound 8 µM,0.649
same,relative viability,NCI-H358; first compound 0.8 µM,0.228
same,relative viability,NCI-H358; first compound 2.53 µM,0.232
same,relative viability,NCI-H358; first compound 8 µM,0.22
